From patent publication US10689378B2, “Triazolopyridine compounds and uses thereof” (Novartis AG, priority 2016, dated 2020) come the findings set out here.

By IC50 is commonly meant the concentration that inhibits the measured activity by half.

The target in one test is T1, EED (1-441)-His protein (Homo sapiens, UniProt O75530).
T1 construct: 30 nM EED (1-441)-His protein
The experiment in a line: EED-H3K27Me3 peptide competition binding assay by AlphaScreen. As to conditions: EED-H3K27Me3 peptide competition, AlphaScreen; read-out: (a) IC50 EED Alphascreen binding Qualified. An outline of the steps:
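Serially diluted compound (12 points, 3-fold) incubated 20 min with 30 nM EED(1-441)-His and 15 nM biotin-H3K27Me3(19-33) peptide in 25 mM HEPES pH 8, 0.02% Tween-20, 0.5% BSA. Ni-chelate acceptor/streptavidin donor beads (10 μg/mL each) added, 1 h rt dark; 615 nm emission normalized to controls, dose-response fit for IC50.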
For orientation: In Alpha technology, singlet oxygen from a donor bead excites a nearby acceptor bead.

The target in test [1] is wild type PRC2 (wtPRC2) complex (Homo sapiens, UniProt O75530). The experiment in a line: EED LC-MS assay (SAH production by PRC2). As to conditions: PRC2 LC-MS assay; read-out: (b) IC50 EED LC-MS Qualified. The class given is biochemical. The gist of the method: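 LC-MS/MS readout of SAH (d4-SAH standard) after TFA quench gives PRC2 activity, normalized to controls and fitted to dose-response for IC50. Reaction: 12 nM EZH2/SUZ12/EED/Rbap48/AEBP complex, 1 μM SAM, 1.5 μM H3[21-44] peptide, 120 min rt, 20 min compound preincubation.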
wild type PRC2 (wtPRC2) complex, sequence (O75530 whole entry): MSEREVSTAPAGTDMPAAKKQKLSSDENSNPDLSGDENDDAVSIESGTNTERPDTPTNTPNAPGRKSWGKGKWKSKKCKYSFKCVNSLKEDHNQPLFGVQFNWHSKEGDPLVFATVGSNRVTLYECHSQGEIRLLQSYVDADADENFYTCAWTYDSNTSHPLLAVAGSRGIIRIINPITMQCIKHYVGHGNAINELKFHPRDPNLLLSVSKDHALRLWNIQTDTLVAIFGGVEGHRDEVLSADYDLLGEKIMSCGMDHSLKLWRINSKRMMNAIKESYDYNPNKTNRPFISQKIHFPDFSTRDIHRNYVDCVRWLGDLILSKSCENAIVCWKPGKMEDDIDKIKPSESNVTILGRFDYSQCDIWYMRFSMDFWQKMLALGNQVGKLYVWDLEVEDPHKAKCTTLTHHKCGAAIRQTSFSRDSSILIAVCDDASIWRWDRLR
wild type PRC2 (wtPRC2) complex, sequence (Q15910 whole entry partner): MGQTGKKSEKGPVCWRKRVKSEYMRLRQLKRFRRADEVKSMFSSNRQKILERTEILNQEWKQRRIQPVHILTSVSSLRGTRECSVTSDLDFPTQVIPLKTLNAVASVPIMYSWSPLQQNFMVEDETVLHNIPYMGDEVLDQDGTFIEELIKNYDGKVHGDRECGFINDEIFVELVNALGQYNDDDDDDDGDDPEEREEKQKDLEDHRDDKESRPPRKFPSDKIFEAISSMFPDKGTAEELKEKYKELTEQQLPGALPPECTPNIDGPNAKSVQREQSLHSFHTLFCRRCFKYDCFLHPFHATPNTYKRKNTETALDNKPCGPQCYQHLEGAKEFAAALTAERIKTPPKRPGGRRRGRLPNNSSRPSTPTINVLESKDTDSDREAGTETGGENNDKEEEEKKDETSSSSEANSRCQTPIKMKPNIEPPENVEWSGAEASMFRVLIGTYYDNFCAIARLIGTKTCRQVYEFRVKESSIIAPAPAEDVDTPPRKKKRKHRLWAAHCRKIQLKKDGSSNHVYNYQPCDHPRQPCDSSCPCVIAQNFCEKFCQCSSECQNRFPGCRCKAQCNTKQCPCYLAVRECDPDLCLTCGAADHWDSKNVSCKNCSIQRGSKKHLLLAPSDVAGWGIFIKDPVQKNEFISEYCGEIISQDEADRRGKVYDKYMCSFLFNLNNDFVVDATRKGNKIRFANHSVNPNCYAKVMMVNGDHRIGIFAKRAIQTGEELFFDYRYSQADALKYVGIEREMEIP
wild type PRC2 (wtPRC2) complex, sequence (Q15022 whole entry partner): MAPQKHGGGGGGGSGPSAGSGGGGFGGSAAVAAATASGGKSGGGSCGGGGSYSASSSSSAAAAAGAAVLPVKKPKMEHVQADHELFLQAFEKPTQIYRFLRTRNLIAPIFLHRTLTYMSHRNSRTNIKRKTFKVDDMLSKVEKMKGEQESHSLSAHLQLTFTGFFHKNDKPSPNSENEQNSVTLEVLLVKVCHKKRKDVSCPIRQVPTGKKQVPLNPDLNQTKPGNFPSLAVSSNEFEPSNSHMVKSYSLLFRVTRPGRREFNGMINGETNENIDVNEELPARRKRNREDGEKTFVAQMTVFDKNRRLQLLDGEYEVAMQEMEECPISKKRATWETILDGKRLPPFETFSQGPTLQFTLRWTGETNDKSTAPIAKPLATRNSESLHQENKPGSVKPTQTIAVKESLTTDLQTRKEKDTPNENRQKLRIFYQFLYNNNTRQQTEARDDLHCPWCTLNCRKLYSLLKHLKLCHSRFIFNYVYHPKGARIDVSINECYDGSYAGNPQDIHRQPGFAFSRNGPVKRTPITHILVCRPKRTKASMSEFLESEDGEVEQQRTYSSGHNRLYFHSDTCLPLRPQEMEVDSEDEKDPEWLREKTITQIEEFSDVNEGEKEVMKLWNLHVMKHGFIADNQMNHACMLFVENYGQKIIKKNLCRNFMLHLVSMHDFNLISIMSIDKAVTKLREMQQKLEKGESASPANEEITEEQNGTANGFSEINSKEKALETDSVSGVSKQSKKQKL
wild type PRC2 (wtPRC2) complex, sequence (Q09028 whole entry partner): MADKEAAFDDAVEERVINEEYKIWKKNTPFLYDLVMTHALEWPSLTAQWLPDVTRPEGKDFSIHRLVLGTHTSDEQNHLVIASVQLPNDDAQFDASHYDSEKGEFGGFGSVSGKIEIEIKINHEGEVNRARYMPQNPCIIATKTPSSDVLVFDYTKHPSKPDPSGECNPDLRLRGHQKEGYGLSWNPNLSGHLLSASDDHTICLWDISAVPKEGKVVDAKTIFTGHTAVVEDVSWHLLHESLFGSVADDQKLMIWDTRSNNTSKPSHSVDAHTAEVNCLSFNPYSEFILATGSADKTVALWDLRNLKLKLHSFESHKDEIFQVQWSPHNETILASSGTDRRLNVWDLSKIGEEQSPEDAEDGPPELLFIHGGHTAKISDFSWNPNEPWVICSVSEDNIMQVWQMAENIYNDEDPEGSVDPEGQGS
wild type PRC2 (wtPRC2) complex, sequence (Q6ZN18 whole entry partner): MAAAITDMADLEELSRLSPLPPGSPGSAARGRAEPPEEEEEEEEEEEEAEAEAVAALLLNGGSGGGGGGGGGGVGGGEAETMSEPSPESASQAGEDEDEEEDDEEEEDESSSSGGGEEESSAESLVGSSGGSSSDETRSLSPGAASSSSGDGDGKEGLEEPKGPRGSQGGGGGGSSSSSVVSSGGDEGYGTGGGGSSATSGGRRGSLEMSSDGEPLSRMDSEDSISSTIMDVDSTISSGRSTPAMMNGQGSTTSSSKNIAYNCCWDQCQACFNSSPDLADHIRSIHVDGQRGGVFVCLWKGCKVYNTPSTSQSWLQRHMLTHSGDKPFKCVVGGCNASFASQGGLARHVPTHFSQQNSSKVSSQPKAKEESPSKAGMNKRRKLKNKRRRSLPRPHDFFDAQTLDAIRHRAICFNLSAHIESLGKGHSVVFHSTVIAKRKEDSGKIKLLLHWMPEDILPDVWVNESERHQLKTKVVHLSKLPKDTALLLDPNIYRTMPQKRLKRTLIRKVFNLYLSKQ

For test [2], the system named is H3K27 methylation in G401 cell. The experiment in a line: ELISA (H3K27 methylation) assay in G401 cells. The class given is cell-based, human. As to conditions: Homo sapiens, G-401, H3K27 methylation ELISA, read-out: (c) IC50 ELISA Qualified. The gist of the method: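 IC50 from dose-response fit of percent inhibition relative to DMSO, using H3K27me3/me2 ELISA signal (ECL) normalized to histone H3. Histones HCl-extracted after 48 h compound exposure of G401 cells at up to 20 μM, 8- or 12-point 3-fold series.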
(In an ELISA, binding on a coated surface is turned into a signal by an enzyme label.)

T1 sequence (O75530 whole entry): as the sequence (O75530 whole entry) above

`COc1cccc(F)c1CNc1ccc(-c2cncnc2C)c2nncn12` [Example 221, N-(2-fluoro-6-methoxybenzyl)-8-(4-methylpyrimidin-5-yl)-[1,2,4] triazolo[4,3-a]pyridin-5-amine]: the half-inhibitory concentration (IC50) on EED (1-441)-His protein turned out to be 21.6 nM; in test [1], 14.9 nM; in test [2] it was 12.1 nM.
The like results for `COc1cccc(F)c1CNc1ccc(-c2ccc(F)nc2C)c2nncn12` [Example 222, 8-(6-fluoro-2-methylpyridin-3-yl)-N-(2-fluoro-6-methoxybenzyl)-[1,2,4]triazolo[4,3-a] pyridin-5-amine] were, in that order, 9.9 nM, 122 nM and 9.9 nM.
The like results for `COc1cccc(F)c1CNc1ccc(-c2cc(F)ccc2C)c2nncn12` [Example 223, 8-(5-fluoro-2-methylphenyl)-N-(2-fluoro-6-methoxybenzyl)-[1,2,4]triazolo[4,3-a] pyridin-5-amine] were, in that order, 23.3 nM, 230 nM and 66.7 nM.
Regarding `COc1cccc(F)c1CNc1ccc(-c2cnn(C3CCNCC3)c2)c2nncn12` [Example 225, N-(2-fluoro-6-methoxybenzyl)-8-(1-(piperidin-4-yl)-1H-pyrazol-4-yl)-[1,2,4]triazolo[4,3-a]pyridin-5-amine], the IC50 at EED (1-441)-His protein worked out at 26.9 nM; in test [1] it was 147 nM; in test [2], 15.9 nM.
The like results for `COc1cccc(F)c1CNc1ccc(-c2cnn(CCN3CCOCC3)c2)c2nncn12` [Example 226, N-(2-fluoro-6-methoxybenzyl)-8-(1-(2-morpholinoethyl)-1H-pyrazol-4-yl)-[1,2,4] triazolo[4,3-a]pyridin-5-amine] were, in that order, 43.3 nM, 92 nM and 38.8 nM.
The like results for `COc1cc(F)cc(F)c1CNc1ccc(-c2c(C)noc2C)c2nncn12` [Example 227, N-(2,4-difluoro-6-methoxybenzyl)-8-(3,5-dimethylisoxazol-4-yl)-[1,2,4] triazolo[4,3-a]pyridin-5-amine] were, in that order, 45.5 nM, 131 nM and 40.2 nM.
The like results for `COc1cc(F)cc(F)c1CNc1ccc(-c2ccncc2)c2nncn12` [Example 228, N-(2,4-difluoro-6-methoxybenzyl)-8-(pyridin-4-yl)-[1,2,4]triazolo[4,3-a]pyridin-5-amine] were, in that order, 78.9 nM, 98.6 nM and 43.7 nM.
With `COc1cccc(F)c1CNc1ccc(-c2ccc(S(C)(=O)=O)cc2C)c2nncn12` [Example 229, N-(2-fluoro-6-methoxybenzyl)-8-(2-methyl-4-(methylsulfonyl)phenyl)-[1,2,4]triazolo[4,3-a]pyridin-5-amine], the IC50 at EED (1-441)-His protein is 16.1 nM; in test [1], 55.9 nM; in test [2], 13.5 nM.
The like results for `COc1cccc(F)c1CNc1ccc(-c2ccncc2C)c2nncn12` [Example 230, N-(2-fluoro-6-methoxybenzyl)-8-(3-methylpyridin-4-yl)-[1,2,4]triazolo[4,3-a] pyridin-5-amine] were, in that order, 12.9 nM, 27.2 nM and 9.4 nM.
The like results for `COc1cccc(F)c1CNc1ccc(-c2ccc(C(=O)N(C)C)cc2C)c2nncn12` [Example 231, 4-(5-((2-fluoro-6-methoxybenzyl)amino)-[1,2,4]triazolo[4,3-a]pyridin-8-yl)-N,N,3-trimethylbenzamide] were, in that order, 7.7 nM, 29.1 nM and 3.4 nM.
The like results for `COc1cccc(F)c1CNc1ccc(-c2ccnn2C(C)C)c2nncn12` [Example 232, N-(2-fluoro-6-methoxybenzyl)-8-(1-isopropyl-1H-pyrazol-5-yl)-[1,2,4] triazolo[4,3-a]pyridin-5-amine] were, in that order, 50 nM, 159 nM and 62.2 nM.
With `CCn1nccc1-c1ccc(NCc2c(F)cccc2OC)n2cnnc12` [Example 233, 8-(1-ethyl-1H-pyrazol-5-yl)-N-(2-fluoro-6-methoxybenzyl)-[1,2,4]triazolo[4,3-a] pyridin-5-amine], the IC50 is 14 nM on EED (1-441)-His protein, 47.8 nM in test [1] and 15.3 nM in test [2].
The like results for `COc1cccc(F)c1CNc1ccc(-c2ccc(CCC(=O)N(C)C)nc2)c2nncn12` [Example 234, 3-(5-(5-((2-fluoro-6-methoxybenzyl)amino)-[1,2,4]triazolo[4,3-a]pyridin-8-yl)pyridin-2-yl)-N,N-dimethyl propanamide] were, in that order, 35 nM, 149 nM and 26.3 nM.
The like results for `COc1cc(F)cc(F)c1CNc1ccc(-c2ccc(S(C)(=O)=O)cc2)c2nncn12` [Example 235, N-(2,4-difluoro-6-methoxybenzyl)-8-(4-(methylsulfonyl)phenyl)-[1,2,4]triazolo[4,3-a]pyridin-5-amine] were, in that order, 68.7 nM, 107 nM and 138 nM.
For the molecule `COc1cccc(F)c1CNc1ccc(-c2cnccc2Cl)c2nncn12` [Example 236, 8-(4-chloropyridin-3-yl)-N-(2-fluoro-6-methoxybenzyl)-[1,2,4]triazolo[4,3-a]pyridin-5-amine], the IC50 was 83.6 nM on EED (1-441)-His protein, 116 nM in test [1] and 66.3 nM in test [2].
As for `COc1cccc(F)c1CNc1ccc(-c2cccnc2C(F)(F)F)c2nncn12` [Example 237, N-(2-fluoro-6-methoxybenzyl)-8-(2-(trifluoromethyl)pyridin-3-yl)-[1,2,4]triazolo[4,3-a] pyridin-5-amine], the IC50 on EED (1-441)-His protein turned out to be 86.9 nM; in test [1], 116 nM; in test [2], 116 nM.
On to `COc1cccc(F)c1CNc1ccc(-c2ccccc2CO)c2nncn12` [Example 238, (2-(5-((2-fluoro-6-methoxy benzyl)amino)-[1,2,4]triazolo[4,3-a]pyridin-8-yl)phenyl)methanol], for which the IC50 on EED (1-441)-His protein was found to be 74.5 nM; in test [1], 153 nM; in test [2], 85.3 nM.
The like results for `COc1cc(F)cc(F)c1CNc1ccc(-c2cccnc2C)c2nncn12` [Example 239, N-(2,4-difluoro-6-methoxybenzyl)-8-(2-methylpyridin-3-yl)-[1,2,4]triazolo[4,3-a]pyridin-5-amine] were, in that order, 24.6 nM, 39.6 nM and 20 nM.
For the molecule `COc1cc(F)cc(F)c1CNc1ccc(-c2cnc(S(C)(=O)=O)cc2C)c2nncn12` [Example 240, N-(2,4-difluoro-6-methoxybenzyl)-8-(4-methyl-6-(methylsulfonyl)pyridin-3-yl)-[1,2,4]triazolo[4,3-a] pyridin-5-amine], the figures for the IC50 (at EED (1-441)-His protein; in test [1]; in test [2]) were 52.1 nM, 53.4 nM and 29.5 nM, respectively.
The like results for `COc1cc(F)cc(F)c1CNc1ccc(-c2ccc(S(C)(=O)=O)nc2C)c2nncn12` [Example 241, N-(2,4-difluoro-6-methoxybenzyl)-8-(2-methyl-6-(methylsulfonyl)pyridin-3-yl)-[1,2,4]triazolo[4,3-a] pyridin-5-amine] were, in that order, 16.2 nM, 56.2 nM and 12.6 nM.
